# Experimental data taken from patent publication EP0060994A1, “Bis-hydroxyethylmercapto-1,10-decane derivative, process for its preparation, and pharmaceutical compositions containing it” (LABORATORI PROPHIN S.p.A., priority 1981, dated 1982).
# Read-outs that look alike come from different tables or passages of the source.
# Assays:
# [1] = test system: aus dem Epydimalgewebe der Ratten isolierten und in vitro inkubierten Fettzellen; test: tissue or blood; details: 0.5 h
# From the text: Die in der untenanliegenden Tabelle hervorgebrachten Resultate wurden auf, aus dem Epydimalgewebe der Ratten isolierten und in vitro inkubierten Fettzellen durchgeführt, wobei die Befreiung von Glyzerol als Parameter der Lypolysis in Anbetracht gezogen wurde.
# Die spontane Lypolysis in Abwesenheit von Arzneimitteln wurde als Vergleichstermin in Anbetracht gezogen.
# Die Hemmungsprozentualen beziehen sich auf die spontane (erste Spalte), von Epynephrin induzierte (zweite Spalte) und von Theophyllin induzierte (dritte Spalte) Lypolysis.
# Lypolysis = details: in the presence of zyklischem AMP-dibutyrat; cited from earlier work
# Maus (Swissstamm) = details: mouse, oral, same experimental conditions; literature value; cited from earlier work
# [2] = read-out: Lypolysis +Epynephrin 10^-6M
# [3] = read-out: Lypolysis +Theophyllin 3x10^-4M
smiles,measurement,setting,value
"O=C(OCCSCCCCCCCCCCSCCOC(=O)OCc1cccnc1)OCc1cccnc1 [TN, Gemischtes Doppelcarbonat des Bis-hydroxyethylmercapto-1,10-decans und 3-Pyridylmethanols]",inhibition at 100 µM,[1]; [2],34%
same,inhibition at 1000 µM,[1]; [2],58%
same,inhibition at 100 µM,[1]; [3],30%
same,inhibition at 1000 µM,[1]; [3],69%
same,inhibition at 100 µM,[1]; read-out: Lypolysis Spontane,70%
same,inhibition at 1000 µM,[1]; read-out: Lypolysis Spontane,84%
Cn1c(=O)c2[nH]cnc2n(C)c1=O [Theophyllin],fold induction at 300 µM,[1]; read-out: von Theophyllin in Vergleich mit der spontanen Lypolysis induzierte Zunahme,7.6
CNCC(O)c1ccc(O)c(O)c1 (stereo not drawn) [Epynephrin],fold induction at 1 µM,[1]; read-out: von Epynephrin in Vergleich mit der spontanen Lypolysis induzierte Zunahme,12.8
"OCc1cccnc1 [N, Nicotinol]",inhibition at 2000 µM,[1]; [2],38%
same,inhibition at 200 µM,[1]; [3],37%
same,inhibition at 2000 µM,[1]; [3],60%
same,inhibition at 200 µM,[1]; read-out: Lypolysis Spontane,60%
same,inhibition at 2000 µM,[1]; read-out: Lypolysis Spontane,89%
"OCCSCCCCCCCCCCSCCO [T, Thiadenol]",inhibition at 1000 µM,[1]; [2],33%
same,inhibition at 100 µM,[1]; [3],34%
same,inhibition at 1000 µM,[1]; [3],47%
same,in vitro lypolysishemmende Wirkung,Lypolysis,lypolysishemmende Wirkung
same,LD50-Wert,Maus (Swissstamm),10 g/kg
